Measured values taken from ChEMBL document CHEMBL1201862, “PubChem BioAssay data set” (2004).
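Following 48 hours of exposure in 96-well plates, responses at five concentrations were used to interpolate endpoints linearly. At the GI50, growth is halved.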 Active and inactive are the calls of the source. No stated cut-off is given here; in the data, active = GI50 up to about 1.1 µM and inactive = higher.

Columns and labels:
Experiment in all cases: DTP human tumour cell line panel, 48 h
HCT-15 = tested on: HCT-15
EKVX = tested on: EKVX
SR = tested on: SR
SF-295 = tested on: SF-295
Malme-3M = tested on: Malme-3M
A549 = tested on: A549
UO-31 = tested on: UO-31
KM12 = tested on: KM12
NCI-H460 = tested on: NCI-H460
CCRF-CEM = tested on: CCRF-CEM
IGROV-1 = tested on: IGROV-1
SK-MEL-28 = tested on: SK-MEL-28
SN12C = tested on: SN12C
HT-29 = tested on: HT-29
SNB-75 = tested on: SNB-75
HOP-62 = tested on: HOP-62
DU-145 = tested on: DU-145
CAKI-1 = tested on: CAKI-1
SK-MEL-2 = tested on: SK-MEL-2
SNB-19 = tested on: SNB-19
SF-539 = tested on: SF-539
NCI-H23 = tested on: NCI-H23
HCT-116 = tested on: HCT-116
K562 = tested on: K562
MDA-N = tested on: MDA-N
HL-60 = tested on: HL-60
PC-3 = tested on: PC-3
OVCAR-4 = tested on: OVCAR-4
NCI-H522 = tested on: NCI-H522
MDA-MB-435 = tested on: MDA-MB-435
MDA-MB-231 = tested on: MDA-MB-231
RXF 393 = tested on: RXF 393
MCF7 = tested on: MCF7
U-251 = tested on: U-251
OVCAR-5 = tested on: OVCAR-5
NCI/ADR-RES = tested on: NCI/ADR-RES
786-0 = tested on: 786-0
COLO 205 = tested on: COLO 205
SW-620 = tested on: SW-620
RPMI-8226 = tested on: RPMI-8226
OVCAR-8 = tested on: OVCAR-8
SK-MEL-5 = tested on: SK-MEL-5
M14 = tested on: M14
A498 = tested on: A498
HOP-92 = tested on: HOP-92
SF-268 = tested on: SF-268
ACHN = tested on: ACHN
UACC-257 = tested on: UACC-257
T47D = tested on: T47D
MOLT-4 = tested on: MOLT-4
UACC-62 = tested on: UACC-62
HCC 2998 = tested on: HCC 2998
OVCAR-3 = tested on: OVCAR-3
SK-OV-3 = tested on: SK-OV-3
Hs-578T = tested on: Hs-578T
LOX IMVI = tested on: LOX IMVI
NCI-H226 = tested on: NCI-H226

SMILES: N=C(N)NS(=O)(=O)c1ccc(NNc2c3ccccc3nc3c(C(=O)Nc4ccc(S(=O)(=O)Nc5ncccn5)cc4)cccc23)cc1
- GI50 (HCT-15): 34.1 µM
- GI50 (EKVX): 31.8 µM (inactive)
- GI50 (SR): > 10 µM (inactive)
- GI50 (SF-295): 40.2 µM (inactive)
- GI50 (Malme-3M): 22.1 µM (inactive)
- GI50 (A549): 47.8 µM (inactive)
- GI50 (UO-31): 22.4 µM (inactive)
- GI50 (KM12): 30.6 µM (inactive)
- GI50 (NCI-H460): 45.3 µM (inactive)
- GI50 (CCRF-CEM): 30.8 µM (inactive)
- GI50 (IGROV-1): 18.2 µM (inactive)
- GI50 (SK-MEL-28): 55.1 µM (inactive)
- GI50 (SN12C): 42.2 µM (inactive)
- GI50 (HT-29): 22.9 µM (inactive)
- GI50 (SNB-75): > 100 µM (inactive)
- GI50 (HOP-62): 45.3 µM (inactive)
- GI50 (DU-145): 60.1 µM (inactive)
- GI50 (CAKI-1): 37.8 µM (inactive)
- GI50 (SK-MEL-2): 50.4 µM (inactive)
- GI50 (SNB-19): 50.1 µM (inactive)
- GI50 (SF-539): 35.4 µM (inactive)
- GI50 (NCI-H23): 35.3 µM (inactive)
- GI50 (HCT-116): 28.4 µM (inactive)
- GI50 (K562): 27.2 µM (inactive)
- GI50 (MDA-N): 49.7 µM (inactive)
- GI50 (HL-60): 38.2 µM (inactive)
- GI50 (PC-3): 33.7 µM (inactive)
- GI50 (OVCAR-4): 29.2 µM (inactive)
- GI50 (NCI-H522): 19.3 µM (inactive)
- GI50 (MDA-MB-435): 43.2 µM (inactive)
- GI50 (MDA-MB-231): 60.1 µM (inactive)
- GI50 (RXF 393): 29 µM (inactive)
- GI50 (MCF7): 31.5 µM (inactive)
- GI50 (U-251): 43.7 µM (inactive)
- GI50 (OVCAR-5): 74.8 µM (inactive)
- GI50 (NCI/ADR-RES): > 100 µM (inactive)
- GI50 (786-0): 31.6 µM (inactive)
- GI50 (COLO 205): 40.5 µM (inactive)
- GI50 (SW-620): 37.5 µM (inactive)
- GI50 (RPMI-8226): 33.3 µM (inactive)
- GI50 (OVCAR-8): 29.4 µM (inactive)
- GI50 (SK-MEL-5): 26.6 µM (inactive)
- GI50 (M14): 20.4 µM (inactive)
- GI50 (A498): > 100 µM (inactive)
- GI50 (HOP-92): 67 µM (inactive)
- GI50 (SF-268): 47.2 µM (inactive)
- GI50 (ACHN): 31 µM (inactive)
- GI50 (UACC-257): 66.7 µM (inactive)
- GI50 (T47D): 39 µM (inactive)
- GI50 (MOLT-4): 38.9 µM (inactive)
- GI50 (UACC-62): 21.2 µM (inactive)
- GI50 (HCC 2998): 50.8 µM (inactive)
- GI50 (OVCAR-3): 38.4 µM (inactive)

SMILES: O=[N+]([O-])/C=C(\CS(=O)(=O)c1ccccc1)c1ccc2c(c1)OCO2
- GI50 (HCT-15): 37.2 µM
- GI50 (EKVX): > 100 µM (inactive)
- GI50 (SR): 47.5 µM (inactive)
- GI50 (SF-295): 36.7 µM (inactive)
- GI50 (A549): 37.8 µM (inactive)
- GI50 (UO-31): 28.6 µM (inactive)
- GI50 (KM12): 28.4 µM (inactive)
- GI50 (CCRF-CEM): 0.56 µM (active)
- GI50 (IGROV-1): 80.5 µM (inactive)
- GI50 (SK-MEL-28): 69.2 µM (inactive)
- GI50 (SK-OV-3): 33.1 µM (inactive)
- GI50 (SN12C): 39.7 µM (inactive)
- GI50 (HT-29): 53.1 µM (inactive)
- GI50 (SNB-75): > 100 µM (inactive)
- GI50 (HOP-62): 92.9 µM (inactive)
- GI50 (DU-145): 38.9 µM (inactive)
- GI50 (CAKI-1): 29.2 µM (inactive)
- GI50 (SF-539): > 100 µM (inactive)
- GI50 (NCI-H23): 5.69 µM (inactive)
- GI50 (HCT-116): 34.8 µM (inactive)
- GI50 (K562): 66.5 µM (inactive)
- GI50 (Hs-578T): 38.1 µM (inactive)
- GI50 (MDA-N): 39.2 µM (inactive)
- GI50 (HL-60): 38 µM (inactive)
- GI50 (NCI-H522): 21.7 µM (inactive)
- GI50 (MDA-MB-435): 23.8 µM (inactive)
- GI50 (MDA-MB-231): 23.1 µM (inactive)
- GI50 (RXF 393): 64.3 µM (inactive)
- GI50 (MCF7): 48.2 µM (inactive)
- GI50 (U-251): 88.5 µM (inactive)
- GI50 (OVCAR-5): 27 µM (inactive)
- GI50 (LOX IMVI): 37.2 µM (inactive)
- GI50 (NCI/ADR-RES): 19.7 µM (inactive)
- GI50 (786-0): 38.5 µM (inactive)
- GI50 (COLO 205): 53.5 µM (inactive)
- GI50 (SW-620): 75.3 µM (inactive)
- GI50 (NCI-H226): 30 µM (inactive)
- GI50 (RPMI-8226): 87.1 µM (inactive)
- GI50 (OVCAR-8): 60.1 µM (inactive)
- GI50 (SK-MEL-5): 45.1 µM (inactive)
- GI50 (M14): 20.8 µM (inactive)
- GI50 (A498): 31.8 µM (inactive)
- GI50 (HOP-92): > 100 µM (inactive)
- GI50 (SF-268): 27.2 µM (inactive)
- GI50 (ACHN): 45.6 µM (inactive)
- GI50 (T47D): > 100 µM (inactive)
- GI50 (MOLT-4): 67.9 µM (inactive)
- GI50 (UACC-62): 48.2 µM (inactive)
- GI50 (HCC 2998): > 100 µM (inactive)
- GI50 (OVCAR-3): 28.4 µM (inactive)
